Test results reported in publication PMC10229614 (Scientific Reports, 2023).
Like-named read-outs stand apart in the source and are kept apart here.

Assays:
[1] = test system: ERα; settings: read-out: ERα binding (IC50), cited from earlier work
[2] = test system: CYP19A1 expression; assay: qPCR of CYP19A1 mRNA in high-risk postmenopausal breast tissue microstructures; type: cell-based, human; settings: 24 h, vs vehicle; for Suppression of baseline CYP19A1 expression: 5 µM, six subjects' tissues
[3] = test system: ERβ; settings: read-out: ERβ binding (IC50), cited from earlier work
[4] = molecular target: T1, aromatase (CYP19A1) (Homo sapiens, UniProt P11511); assay: Aromatase inhibition assay (Corning Supersomes CYP19/MFC kit, fluorescent); type: biochemical; settings: 37 °C, mean ± SD of at least three measurements
T1 construct: purchased Corning (Corning, NY)
T1 sequence (P11511 1-503): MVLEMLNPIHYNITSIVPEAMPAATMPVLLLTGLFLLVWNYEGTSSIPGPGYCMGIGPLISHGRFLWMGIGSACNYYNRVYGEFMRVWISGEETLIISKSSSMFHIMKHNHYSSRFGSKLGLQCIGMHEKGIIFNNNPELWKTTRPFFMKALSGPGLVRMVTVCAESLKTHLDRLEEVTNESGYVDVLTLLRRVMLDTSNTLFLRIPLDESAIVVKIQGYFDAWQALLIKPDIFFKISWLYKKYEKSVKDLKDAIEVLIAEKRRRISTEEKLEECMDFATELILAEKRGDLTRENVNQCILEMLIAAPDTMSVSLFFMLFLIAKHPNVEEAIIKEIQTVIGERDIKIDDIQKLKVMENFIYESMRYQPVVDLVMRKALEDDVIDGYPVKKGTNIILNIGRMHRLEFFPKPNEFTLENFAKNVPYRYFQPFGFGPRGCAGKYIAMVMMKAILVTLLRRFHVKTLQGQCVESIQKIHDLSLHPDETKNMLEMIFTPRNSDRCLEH
Protocol: Formation of a fluorescent metabolite was measured at Ex/Em of 409 nm/530 nm. Data represents mean ± SD of at least three independent measurements.
To evaluate the aromatase inhibitory potential of hops, licorice species, and their bioactive compounds, the Corning® Supersomes™ P450 Inhibition Kit CYP19/MFC high throughput inhibition assay was used. The protocol of the kit, which is based on the effects of the tested agents on the conversion of the fluorescent substrate, 7-methoxy-4-trifluoromethyl coumarin (MFC) to 7-hydroxy-4-trifluoromethyl coumarin (HFC) by aromatase, was followed. […] Then the enzyme/substrate mixture containing the aromatase enzyme and MFC were added to the pre-incubated mixture and were incubated at 37 °C for 30 min before stopping the enzymatic reaction with the stop solution. The fluorescent signal was evaluated at the Excitation/Emission of 409 nm/530 nm and was corrected for the potential innate fluorescence of the tested extracts and compounds.

[5] = test system: uterus; set-up: method as in PMID 18619951, PMID 34848279; settings: cited from earlier work
[6] = test system: uterus; assay: In vivo uterotrophic study in immature female Sprague-Dawley rats; set-up: species or system rat; settings: 3 days
Protocol: Animals were sacrificed on day 4 and their uterine weights were measured.
We used the OECD guidelines and animal model for testing uterotrophic or estrogenic activity of compounds[49]. […] The animals were treated for 3 days every 24 h. Animal weight and food intake were evaluated daily. Animals were sacrificed by CO2 asphyxiation. Uterus was collected, trimmed of fat and connective tissue, and weighted.

[7] = test system: MCF-7 cells; assay: MCF-7 cell proliferation by IncuCyte live cell imaging; type: cell-based, human
Protocol: Cell proliferation was monitored using live cell imaging by IncuCyte. Data represents the mean of at least two independent observations ± SEM.
MCF-7 cells were seeded at density of 2.5 × 10^3 cells/well in RPMI media supplemented with 10% FBS. Cells were placed in IncuCyte for live cell imaging every 6 h, and were monitored. […] Treatments were repeated every 48 h until day 6 and cells were monitored until day 12. Data was analyzed using Zoom software to quantify the images and were plotted as mean ± SD of at least two independent measurements.

[8] = ref J Agric Food Chem. 2020, 68: 10651–10663

For `CC(C)=CCc1c(O)cc(O)c2c1O[C@H](c1ccc(O)cc1)CC2=O` [8-PN, 8-prenylnaringenin], the IC50 [1, 8] is listed as […], the “Suppression of CYP19A1 expression” value ([2]; 10 µM, 5 subjects' tissues) is listed as 40% and the IC50 [3, 8] is listed as […]. The IC50 [4] was 50 ± 4 nM and the Uterine growth [5] was “enhance uterine growth”.

For `O=C(/C=C/c1ccc(O)cc1)c1ccc(O)cc1O` [LigC, isoliquiritigenin], the IC50 ([1]; ref PLoS One, 2013, 8: e67947) is listed as 16000 ± 1000 nM, the IC50 ([3]; ref PLoS One, 2013, 8: e67947) is listed as 7800 ± 100 nM and the IC50 [4] is listed as 4000 ± 300 nM.

With `COc1cc(O)c(CC=C(C)C)c(O)c1C(=O)/C=C/c1ccc(O)cc1` [XH, xanthohumol] the IC50 [4] was 4300 ± 600 nM.

`CC(C)=CCc1c(O)cc2c(c1O)C(=O)C[C@@H](c1ccc(O)cc1)O2` [6-PN, 6-prenylnaringenin] showed an IC50 [4] of 7400 ± 300 nM.

With `C=CC(C)(C)c1cc(/C=C/C(=O)c2ccc(O)cc2)c(OC)cc1O` [LicA, licochalcone A] the “Suppression of baseline CYP19A1 expression” value [2] was ~40% and the IC50 [4] was 3200 ± 100 nM.

In the case of `C[C@]12CC[C@@H]3c4ccc(OC(=O)c5ccccc5)cc4CC[C@H]3[C@@H]1CC[C@@H]2O` [Estradiol benzoate, 17β-estradiol benzoate, reference compound], the “Uterine weight vs vehicle” value ([6]; 1.6 µg/kg.day s.c.) is reported as “significantly enhanced uterine weight (nearly doubled)”.

For `CC(C)=CCc1c(O)cc(O)c2c(=O)cc(-c3ccc(O)cc3)oc12` [8-PA, 8-prenylapigenin], the IC50 [1, 8] is given as 100 ± 50 nM, the IC50 [3, 8] is given as 30 ± 10 nM and the IC50 [4] is given as 590 ± 80 nM.

For `O=C1C[C@@H](c2ccc(O)cc2)Oc2cc(O)ccc21` [LigF, liquiritigenin], the IC50 ([1]; ref PLoS One, 2013, 8: e67947) is listed as > 200000 nM, the “Suppression of baseline CYP19A1 expression” value [2] is listed as 25% and the “Uterine growth vs vehicle” value ([6]; 50 mg/kg.day s.c.) is listed as “did not enhance uterine growth, significantly”. The E2-induced uterine growth ([6]; 150 mg/kg.day s.c. co-administered with estradiol benzoate 1.6 µg/kg.day) was “suppressed E2-induced uterine growth, significantly”, the “Uterine growth vs vehicle” value ([6]; 150 mg/kg.day s.c.) was “did not enhance uterine growth, significantly” and the “Cell proliferation after treatment halted” value ([7]; 20 µM, treatment halted after third dose (six days)) was “reached full confluency on day 10”. The “Cell proliferation after treatment halted” value ([7]; 40 µM, last dose on day 6) was “maintained a significantly reduced proliferation rate until the end of the study (day 11)”, the Cytotoxicity ([7]; MCF-7 cells exposed to LigF) was “did not detect cytotoxicity” and the Cell proliferation ([7]; repeated doses of 20 µM every 48 h) was “profound suppression of proliferation”. For the same compound, the Cell proliferation ([7]; repeated doses of 40 µM every 48 h) was “profound suppression of proliferation”, the “Cell proliferation after a single dose” value ([7]; single dose) was “clear reduction in cell proliferation for up to 48 h” and the IC50 [4] was 430 ± 20 nM.
